Test results: US7189850B2, “Triaza-spiropiperidine derivatives” (Hoffmann-La Roche Inc., priority 2003, dated 2007)
Where two headings read alike, the source gives them in different places.

How the values were obtained:
mGlyT-1b = target: T1, mGlyT-1b (Mus musculus, UniProt P28571); experiment: Glycine uptake inhibition assay (mGlyT-1b); assay type: cell-based
T1 sequence (P28571 1-651 isoform P28571-2): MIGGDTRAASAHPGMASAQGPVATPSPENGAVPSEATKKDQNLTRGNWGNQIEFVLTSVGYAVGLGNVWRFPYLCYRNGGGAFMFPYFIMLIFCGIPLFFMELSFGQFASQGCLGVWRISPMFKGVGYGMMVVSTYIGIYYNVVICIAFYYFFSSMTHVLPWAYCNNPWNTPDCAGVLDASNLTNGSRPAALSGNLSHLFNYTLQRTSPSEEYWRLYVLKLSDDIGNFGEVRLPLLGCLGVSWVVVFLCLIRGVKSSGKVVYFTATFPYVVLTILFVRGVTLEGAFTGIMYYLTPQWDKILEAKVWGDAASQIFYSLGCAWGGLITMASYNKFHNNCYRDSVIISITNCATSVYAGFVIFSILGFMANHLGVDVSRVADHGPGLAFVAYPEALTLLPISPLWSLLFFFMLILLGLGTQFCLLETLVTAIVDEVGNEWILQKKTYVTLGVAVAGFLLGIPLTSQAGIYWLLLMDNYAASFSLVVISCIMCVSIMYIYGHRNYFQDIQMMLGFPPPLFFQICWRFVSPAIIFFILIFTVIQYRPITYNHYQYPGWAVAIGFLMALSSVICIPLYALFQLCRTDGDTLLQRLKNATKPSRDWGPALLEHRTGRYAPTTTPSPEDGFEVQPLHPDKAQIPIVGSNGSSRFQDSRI

| Structure (SMILES) | IC50 (mGlyT-1b) | also measured |
| --- | --- | --- |
| O=C1NCN(c2ccccc2)C12CCN(C1CCCCC1c1ccccc1)CC2 (racemic) [Example 1, (rac,cis)-1-Phenyl-8-(2-phenyl-cyclohexyl)-1,3,8-triaza-spiro[4.5]decan-4-one] |  | melting point: 205 to 208 °C |
| O=C1NCN(c2ccccc2)C12CCN(C1CCCCC1(O)c1ccc(Cl)cc1)CC2 (racemic) [Example 78, (rac,cis)-8-[2-(4-Chloro-phenyl)-2-hydroxy-cyclohexyl]-1-phenyl-1,3,8-triaza-spiro[4.5]decan-4-one] | 0.086 µM |  |
| O=C1NCN(c2ccccc2)C12CCN(C1CCCCC1(O)c1ccncc1)CC2 (racemic) [Example 77, (rac,cis) 8-(2-Hydroxy-2-pyridin-4-yl-cyclohexyl)-1-phenyl-1,3,8-triaza-spiro[4.5]decan-4-one] | 0.062 µM |  |
| O=C1NCN(c2ccccc2)C12CCN([C@H]1CCCC[C@H]1c1ccc(Cl)c(Cl)c1)CC2 (racemic) [Example 13, (rac,cis)-8-[2-(3,4-Dichloro-phenyl)-cyclohexyl]-1-phenyl-1,3,8-triaza-spiro[4.5]decan-4-one] |  | melting point: 198 to 200 °C |
| O=C1NCN(c2ccccc2)C12CCN(C1CCCCC1c1ccccc1)CC2 (racemic) [Example 68, (rac,trans)-1-Phenyl-8-(2-phenyl-cyclohexyl)-1,3,8-triaza-spiro[4.5]decan-4-one] |  | melting point: 254 to 256 °C |
| COc1ccc(N2CNC(=O)C23CCN(C2CCCCC2(O)c2ccc(Cl)cc2)CC3)cc1 (racemic) [Example 92, (rac,cis)-8-[2-(4-Chloro-phenyl)-2-hydroxy-cyclohexyl]-1-(4-methoxy-phenyl)-1,3,8-triaza-spiro[4.5]decan-4-one] | 0.099 µM |  |
| O=C1NCN(c2ccc(F)cc2)C12CCN(C1CCCCC1c1ccc(F)cc1)CC2 (racemic) [Example 24, (rac,cis)-1-(4-Fluoro-phenyl)-8-[2-(4-fluoro-phenyl)-cyclohexyl]-1,3,8-triaza-spiro[4.5]decan-4-one] | 0.067 µM |  |
| O=C1NCN(c2ccccc2)C12CCN(C1CCCCC1(O)c1ccc(F)cc1)CC2 (racemic) [Example 75, (rac,cis)-8-[2-(4-Fluoro-phenyl)-2-hydroxy-cyclohexyl]-1-phenyl-1,3,8-triaza-spiro[4.5]decan-4-one] | 0.041 µM |  |
| Cc1ccc(N2CNC(=O)C23CCN(C2CCCCC2(O)c2ccc(F)cc2)CC3)cc1 (racemic) [Example 91, (rac,cis)-8-[2-(4-Fluoro-phenyl)-2-hydroxy-cyclohexyl]-1-p-tolyl-1,3,8-triaza-spiro[4.5]decan-4-one] |  | IC50 (mGlyT-1b; Flp-in-CHO cells stably transfected with mGlyT-1b cDNA, [3H]-glycine 60 nM and 25 μM non-radioactive glycine, 20 min preincubation at 22° C., read-out: IC50 at GlyT-1 (inhibition of glycine uptake)): 0.039 µM |
| O=C1NCN(c2ccccc2)C12CCN(C1CCCCC1(O)c1ccccc1)CC2 (racemic) [Example 101, (rac,trans)-8-(2-Hydroxy-2-phenyl-cyclohexyl)-1-phenyl-1,3,8-triaza-spiro[4.5]decan-4-one] | 0.056 µM |  |
| O=C1NCN(c2ccccc2)C12CCN(C1COCCC1(O)c1ccccc1)CC2 (racemic) [Example 99, (rac,cis)-8-(4-Hydroxy-4-phenyl-tetrahydro-pyran-3-yl)-1-phenyl-1,3,8-triaza-spiro[4.5]decan-4-one] | 0.058 µM |  |
| O=C1NCN(c2ccc(F)cc2)C12CCN(C1CCCCC1(O)c1ccc(F)cc1)CC2 (racemic) [Example 87, (rac,cis)-1-(4-Fluoro-phenyl)-8-[2-(4-fluoro-phenyl)-2-hydroxy-cyclohexyl]-1,3,8-triaza-spiro[4.5]decan-4-one] | 0.024 µM |  |
| Cc1ccc(C2CCCCC2N2CCC3(CC2)C(=O)NCN3c2ccccc2)cc1 (racemic) [Example 8, (rac,cis)-1-Phenyl-8-(2-p-tolyl-cyclohexyl)-1,3,8-triaza-spiro[4.5]decan-4-one] |  | melting point: 174 to 176 °C |
| O=C1NCN(c2ccc(Cl)cc2)C12CCN(C1CCCCC1(O)c1ccc(F)cc1)CC2 (racemic) [Example 89, (rac,cis)-1-(4-Chloro-phenyl)-8-[2-(4-fluoro-phenyl)-2-hydroxy-cyclohexyl]-1,3,8-triaza-spiro[4.5]decan-4-one] | 0.015 µM |  |
| Cc1ccc(C2CCCCC2N2CCC3(CC2)C(=O)NCN3c2ccc(F)cc2)cc1 (racemic) [Example 22, (rac,cis)-1-(4-Fluoro-phenyl)-8-(2-p-tolyl-cyclohexyl)-1,3,8-triaza-spiro[4.5]decan-4-one] | 0.029 µM |  |
| O=C1NCN(c2ccc(F)cc2)C12CCN([C@H]1CCCC[C@H]1c1ccc(Cl)cc1)CC2 (racemic) [Example 17, (rac,cis)-8-[2-(4-Chloro-phenyl)-cyclohexyl]-1-(4-fluoro-phenyl)-1,3,8-triaza-spiro[4.5]decan-4-one] | 0.074 µM |  |
| O=C1NCN(c2ccccc2)C12CCN([C@H]1CCCC[C@H]1c1ccc(Cl)cc1)CC2 (racemic) [Example 11, (rac,cis)-8-[2-(4-Chloro-phenyl)-cyclohexyl]-1-phenyl-1,3,8-triaza-spiro[4.5]decan-4-one] |  | melting point: 204 to 206 °C |
| Cc1ccccc1C1(O)CCCCC1N1CCC2(CC1)C(=O)NCN2c1ccccc1 (racemic) [Example 76, (rac,cis)-8-(2-Hydroxy-2-o-tolyl-cyclohexyl)-1-phenyl-1,3,8-triaza-spiro[4.5]decan-4-one] | 0.05 µM |  |
| O=C1NCN(c2ccccc2)C12CCN(C1CCOCC1(O)c1ccccc1)CC2 (racemic) [Example 100, (rac,cis)-8-(3-Hydroxy-3-phenyl-tetrahydro-pyran-4-yl)-1-phenyl-1,3,8-triaza-spiro[4.5]decan-4-one] | 0.09 µM |  |
| O=C1NCN(c2ccccc2)C12CCN([C@H]1CCCC[C@H]1c1ccc(F)cc1)CC2 (racemic) [Example 10, (rac,cis)-8-[2-(4-Fluoro-phenyl)-cyclohexyl]-1-phenyl-1,3,8-triaza-spiro[4.5]decan-4-one] |  | melting point: 198 to 200 °C |
| CC(C)CCN1CNC(=O)C12CCN(C1CCCCC1c1ccccc1)CC2 (racemic) [Example 54, (rac,cis)-1-(3-Methyl-butyl)-8-(2-phenyl-cyclohexyl)-1,3,8-triaza-spiro[4.5]decan-4-one] | 0.052 µM |  |
| O=C1NCN(c2ccc(F)cc2)C12CCN(C1CCCCC1(O)c1ccc(Cl)cc1)CC2 (racemic) [Example 88, (rac,cis)-8-[2-(4-Chloro-phenyl)-2-hydroxy-cyclohexyl]-1-(4-fluoro-phenyl)-1,3,8-triaza-spiro[4.5]decan-4-one] | 0.06 µM |  |
| O=C1NCN(c2ccccc2)C12CCN(C1CCCCC1(O)c1ccccc1)CC2 (racemic) [Example 74, (rac,cis)-8-(2-Hydroxy-2-phenyl-cyclohexyl)-1-phenyl-1,3,8-triaza-spiro[4.5]decan-4-one] | 0.044 µM |  |
| O=C1NCN(c2ccc(Cl)cc2)C12CCN(C1CCCCC1(O)c1ccc(Cl)cc1)CC2 (racemic) [Example 90, (rac,cis)-1-(4-Chloro-phenyl)-8-[2-(4-chloro-phenyl)-2-hydroxy-cyclohexyl]-1,3,8-triaza-spiro[4.5]decan-4-one] | 0.043 µM |  |
| O=C1NCN(c2ccc(Cl)c(Cl)c2)C12CCN(C1CCCCC1c1ccccc1)CC2 (racemic) [Example 59, (rac,cis)-1-(3,4-Dichloro-phenyl)-8-(2-phenyl-cyclohexyl)-1,3,8-triaza-spiro[4.5]decan-4-one] | 0.032 µM |  |
